# Source: patent publication US20220370424A1 (Deciphera Pharmaceuticals, LLC, priority 2017, published 2022)
# Key:
# [1] = tested on: PDGFRα D842V mutated Gastrointestinal Stromal Tumors (GIST); experiment: Phase 1 study DCC-2618-01-001: antitumor activity (RECIST 1.1) in GIST patients with PDGFRα D842V mutation; type: in vivo, human; conditions: GIST patient
# Description: (§1) Preliminary antitumor activity was measured by CT scans according to RECIST 1.1 every other cycle (every 56 days). Pharmacodynamics effects were measured as a reduction in mutation allele frequency (MAF) in plasma cell-free (cf) DNA and analyzed with Guardant 360 v2.9 or v2.10 (Guardant Health, Redwood City, Calif.), a. 73-gene next generation sequencing panel.
# All patients had to have progressive disease on standard of care treatment and would rapidly progress without treatment. Three patients with PDGFRα-mutated Gastrointestinal Stromal Tumors (GIST) were enrolled in the study. The PDGFRα D842V mutation was identified in each patient by tumor biopsy. Based on non-clinical data and the available pharmacokinetic data from study DCC-2618-01-001, dose levels of >50 mg BID (daily dose equivalent 100 mg) were sufficient to lead to tumor control i.e. growth arrest in these advanced sarcomas of PDGFRα D842V mutation-dependent tumors in patients suffering from GIST. Out of 3 evaluable patients, 2 were enrolled at or above target-effective dose levels (150 mg QD and 100 mg BID). […] The patient at 100 mg BID is now in Cycle 11 (>40 weeks) and continues to benefit from treatment. […] The 2 patients had 1 and 3 prior treatments with Tyrosine Kinase Inhibitors, respectively.
# [2] = tested on: PDGFRα D842V mutation in plasma cell-free DNA; experiment: Phase 1 study: PDGFRα D842V mutation allele frequency in plasma cfDNA (Guardant 360); type: in vivo, human; conditions: GIST patient at 100 mg BID
# Description: as §1
# To date, cfDNA follow up data for PDGFRα D842V mutation allele frequency in plasma are available for the patient at 100 mg BID only. The PDGFRα D842V mutation was not detected by cfDNA at baseline, but at Cycle 3 Day 1 (8 weeks) post-treatment a frequency of 0.59% was detected.
# [3] = tested on: PDGFRα amplified glioblastoma; experiment: Phase 1 study: antitumor activity (RANO) in glioblastoma patient with PDGFRα amplification; type: in vivo, human; conditions: GBM patient, 20 mg BID oral
# Description: (§2) Preliminary antitumor activity was measured by CT scans according to RANO (Revised Assessment in Neuro-Oncology) criteria every other cycle followed by after every cycle (every 56 or 84 days). Pharmacodynamic effects […] were measured as a reduction in circulating tumor cells (CTC). Whole blood was enriched for CTCs in an OncoQuick tube. The CTC layer was incubated with an adenovirus that replicates and expresses GFP in cells with high levels of telomerase (Oncolys BioPharma Inc.). Cells were then incubated with fluorescently-labeled antibodies, fixed, and stained with DAPI. Cells positive for DAPI, GFP, PDGFRα and GFAP fluorescence were counted as circulating glioblastoma tumor cells using a BioTek Cytation 5 imager. Glial fibrillary acidic protein (GFAP) is unambiguously attributed to glial cells.
# All patients had to have progressive disease on standard of care treatment and would rapidly progress without treatment. One patient with PDGFRα amplified glioblastoma (GBM; 6× amplified, 12 copies) was enrolled in the study at the 20 mg BID dose level. The patient had been treated initially with combined radio-chemotherapy followed by temozolomide alone and progressed after 3 months. The GBM patient is now in cycle 19 (>17 months on study) and continues to benefit from treatment. […] FIG. 1B provided an additional proof of the tumor reduction after cycle 9.
# [4] = tested on: circulating glioblastoma tumor cells (PDGFRα+/GFAP+); experiment: Phase 1 study: circulating glioblastoma tumor cells (PDGFRα+/GFAP+ CTC) in whole blood; type: in vivo, human; conditions: GBM patient, 20 mg BID
# Description: as §2
# The relevance of PDGFRα amplification has been assessed in pediatric and adult high-grade astrocytomas (HGA) including glioblastomas. […] Dunn et al., provide additional evidence that PDGFRα amplification is a driver genomic alteration for GBM (Dunn et al., Genes Dev. (2012) 26(8):756-84). […] The frequency dropped in cycles 13 (52 weeks) and 17 (68 weeks) to 1.11 and 0.58 CTCs/mL, respectively.
# [5] = Phase 1 study: plasma pharmacokinetics, Cycle 1 Day 15, after oral Compound A; type: in vivo, human; conditions: patients, Cycle 1 Day 15 steady state; for Cmax: human, po, 150 mg, Compound A Cmax (mean)
# Source text: Phoenix WinNonlin version 6.3 was used to analyze plasma concentration versus time data for calculation of standard noncompartmental PK parameters. All PK calculations were completed using the nominal sample collection times.
# [6] = target: T1, recombinant wild type PDGFRα (Homo sapiens, UniProt P16234); experiment: Biochemical assay for PDGFRα (coupled pyruvate kinase/lactate dehydrogenase); conditions: 0.5 mM ATP, 4.8 nM PDGFRA; read-out: IC50, inhibition of recombinant wild type PDGFRα enzyme activity
# T1 construct: purchased DeCode Biostructures, Bainbridge Island, Wash
# Description: Inhibition of PDGFRA was measured after adding serial diluted test compound (final assay concentration of 1% DMSO). A decrease in absorption at 340 nm was monitored continuously for 6 hours at 30° C. on a multi-mode microplate reader (BioTek, Winooski, Vt.). The reaction rate was calculated using the 1-2 h time frame. The reaction rate at each concentration of compound was converted to percent inhibition using controls (i.e. reaction with no test compound and reaction with a known inhibitor) and IC50 values were calculated by fitting a four-parameter sigmoidal curve to the data using Prism (GraphPad, San Diego, Calif.).
# [7] = target: T2, recombinant D842V mutant PDGFRα (Homo sapiens, UniProt P16234, D842V); experiment: Biochemical assay for PDGFRα D842V (coupled pyruvate kinase/lactate dehydrogenase); conditions: 0.5 mM ATP, 3 nM PDGFRA D842V; read-out: IC50, inhibition of recombinant D842V mutant PDGFRα enzyme activity
# T2 construct: His (N); purchased Invitrogen, Carlsbad, Calif
# Description: (§3) The reaction rate was calculated using the 2-3 h time frame.
# [8] = target: T3, recombinant wild type PDGFRβ (Homo sapiens, UniProt P09619); experiment: Biochemical assay for PDGFRB (coupled pyruvate kinase/lactate dehydrogenase); conditions: 0.5 mM ATP, 9 nM PDGFRB; read-out: IC50, inhibition of recombinant wild type PDGFRβ enzyme activity
# T3 construct: purchased DeCode Biostructures, Bainbridge Island, Wash
# Description: as §3
# [9] = tested on: D842V mutant PDGFRα BaF3 cells; experiment: BaF3 PDGFRα D842V cell proliferation assay (resazurin); type: cell-based; conditions: Mus musculus, 67 h + 5 h resazurin, read-out: IC50, inhibition of proliferation of D842V mutant PDGFRα BaF3 cells
# Description: (§4) BaF3 cells were transfected with a construct encoding D842V PDGFRα and selected for IL-3 independence.
# (§5) A serial dilution of test compound was dispensed into a 96-well black clear bottom plate (Corning, Corning, N.Y.). Ten thousand cells were added per well in 200 μL complete growth medium. […] Plates were read on a Synergy2 reader (Biotek, Winooski, Vt.) using an excitation of 540 nm and an emission of 600 nm. Data was analyzed using Prism software (GraphPad, San Diego, Calif.) to calculate IC50 values.
# [10] = target: T4, D842V mutant PDGFRα expressed in BaF3 cells (Homo sapiens, UniProt P16234, D842V); experiment: BaF3 PDGFRα D842V Western blot, phospho-PDGFRα (Tyr754); type: cell-based; conditions: 4 hours, read-out: IC50, inhibition of phosphorylation of D842V mutant PDGFRα expressed in BaF3 cells
# T4 construct: expressed in transfected cells; host or cells: BaF3 cells (IL-3 independent selection)
# Source text: as §4
# (§6) Cells were washed with PBS, then lysed. Cell lysates were separated by SDS-PAGE and transferred to PVDF. Phospho-PDGFRα (Tyr754) was detected using an antibody from Cell Signaling Technology (Beverly, Mass.), ECL Plus detection reagent (GE Healthcare, Piscataway, N.J.) and a Molecular Devices Storm 840 phosphorimager in fluorescence mode. Blots were stripped and probed for total PDGFRα using an antibody from Cell Signaling Technology (Beverly, Mass.). IC50 values were calculated using Prism software (GraphPad, San Diego, Calif.).
# [11] = tested on: FIP1L1-PDGFRα fusion in EOL-1 cells; experiment: EOL-1 cell proliferation assay (resazurin); type: cell-based; conditions: Homo sapiens, EOL1; 67 h + 5 h resazurin; read-out: IC50, inhibition of proliferation of FIP1L1-PDGFRα fusion in EOL-1 cells
# Description: as §5
# [12] = tested on: FIP1L1-PDGFRα fusion in EOL-1 cells; experiment: EOL-1 Western blot, phospho-PDGFRα (Tyr754); type: cell-based; conditions: Homo sapiens, EOL1, 4 hours, read-out: IC50, inhibition of phosphorylation of FIP1L1-PDGFRα fusion in EOL-1 cells
# Description: as §6
# T3 sequence (P09619 with tags, fused parts or gaps N1019K): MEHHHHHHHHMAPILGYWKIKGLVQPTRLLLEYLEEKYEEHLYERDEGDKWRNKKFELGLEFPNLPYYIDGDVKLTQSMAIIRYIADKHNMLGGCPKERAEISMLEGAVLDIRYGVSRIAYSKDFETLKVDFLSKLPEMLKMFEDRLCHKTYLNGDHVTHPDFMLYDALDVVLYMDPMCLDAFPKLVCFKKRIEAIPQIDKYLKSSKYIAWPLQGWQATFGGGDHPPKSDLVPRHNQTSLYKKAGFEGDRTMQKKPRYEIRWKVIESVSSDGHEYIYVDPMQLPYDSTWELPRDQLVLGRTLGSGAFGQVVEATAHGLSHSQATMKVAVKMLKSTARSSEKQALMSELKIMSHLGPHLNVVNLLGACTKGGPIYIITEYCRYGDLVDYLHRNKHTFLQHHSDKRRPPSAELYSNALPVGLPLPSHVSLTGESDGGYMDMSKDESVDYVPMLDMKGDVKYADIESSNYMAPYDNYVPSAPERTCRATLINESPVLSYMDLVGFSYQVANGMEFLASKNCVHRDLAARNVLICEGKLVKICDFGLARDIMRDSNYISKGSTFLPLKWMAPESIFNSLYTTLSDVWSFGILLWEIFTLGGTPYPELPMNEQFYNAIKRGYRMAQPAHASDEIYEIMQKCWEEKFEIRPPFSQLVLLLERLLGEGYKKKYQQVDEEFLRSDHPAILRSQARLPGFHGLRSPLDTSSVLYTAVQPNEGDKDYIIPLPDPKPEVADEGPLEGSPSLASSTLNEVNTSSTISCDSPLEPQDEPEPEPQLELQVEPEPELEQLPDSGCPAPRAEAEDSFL
# T4 sequence (P16234 24-1089 D842V): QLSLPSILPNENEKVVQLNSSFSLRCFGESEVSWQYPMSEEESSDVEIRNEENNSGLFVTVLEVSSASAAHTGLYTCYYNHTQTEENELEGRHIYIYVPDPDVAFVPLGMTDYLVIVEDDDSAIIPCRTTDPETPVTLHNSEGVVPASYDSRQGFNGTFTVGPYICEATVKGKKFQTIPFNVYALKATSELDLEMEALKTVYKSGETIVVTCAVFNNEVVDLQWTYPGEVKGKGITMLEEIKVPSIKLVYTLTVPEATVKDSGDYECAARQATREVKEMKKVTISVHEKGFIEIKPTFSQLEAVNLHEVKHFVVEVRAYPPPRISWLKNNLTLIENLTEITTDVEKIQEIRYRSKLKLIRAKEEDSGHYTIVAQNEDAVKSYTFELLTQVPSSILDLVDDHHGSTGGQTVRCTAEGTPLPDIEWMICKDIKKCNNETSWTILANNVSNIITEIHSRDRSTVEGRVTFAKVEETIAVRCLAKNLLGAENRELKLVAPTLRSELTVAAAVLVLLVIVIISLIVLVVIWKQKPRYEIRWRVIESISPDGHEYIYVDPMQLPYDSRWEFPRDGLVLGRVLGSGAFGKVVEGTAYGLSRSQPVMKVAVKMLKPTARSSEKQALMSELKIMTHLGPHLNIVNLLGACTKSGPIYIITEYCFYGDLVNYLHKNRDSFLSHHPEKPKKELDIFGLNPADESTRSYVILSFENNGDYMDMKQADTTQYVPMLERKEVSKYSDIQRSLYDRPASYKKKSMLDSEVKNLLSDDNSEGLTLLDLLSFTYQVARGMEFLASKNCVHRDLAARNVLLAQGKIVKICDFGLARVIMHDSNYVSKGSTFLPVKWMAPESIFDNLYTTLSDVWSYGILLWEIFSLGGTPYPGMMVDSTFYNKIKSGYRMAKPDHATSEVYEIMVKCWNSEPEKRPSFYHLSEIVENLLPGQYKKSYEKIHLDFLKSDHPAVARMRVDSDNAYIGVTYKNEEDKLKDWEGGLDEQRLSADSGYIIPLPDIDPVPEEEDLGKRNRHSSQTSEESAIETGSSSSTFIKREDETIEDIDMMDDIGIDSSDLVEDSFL
# T2 sequence (P16234 with tags, fused parts or gaps D842V): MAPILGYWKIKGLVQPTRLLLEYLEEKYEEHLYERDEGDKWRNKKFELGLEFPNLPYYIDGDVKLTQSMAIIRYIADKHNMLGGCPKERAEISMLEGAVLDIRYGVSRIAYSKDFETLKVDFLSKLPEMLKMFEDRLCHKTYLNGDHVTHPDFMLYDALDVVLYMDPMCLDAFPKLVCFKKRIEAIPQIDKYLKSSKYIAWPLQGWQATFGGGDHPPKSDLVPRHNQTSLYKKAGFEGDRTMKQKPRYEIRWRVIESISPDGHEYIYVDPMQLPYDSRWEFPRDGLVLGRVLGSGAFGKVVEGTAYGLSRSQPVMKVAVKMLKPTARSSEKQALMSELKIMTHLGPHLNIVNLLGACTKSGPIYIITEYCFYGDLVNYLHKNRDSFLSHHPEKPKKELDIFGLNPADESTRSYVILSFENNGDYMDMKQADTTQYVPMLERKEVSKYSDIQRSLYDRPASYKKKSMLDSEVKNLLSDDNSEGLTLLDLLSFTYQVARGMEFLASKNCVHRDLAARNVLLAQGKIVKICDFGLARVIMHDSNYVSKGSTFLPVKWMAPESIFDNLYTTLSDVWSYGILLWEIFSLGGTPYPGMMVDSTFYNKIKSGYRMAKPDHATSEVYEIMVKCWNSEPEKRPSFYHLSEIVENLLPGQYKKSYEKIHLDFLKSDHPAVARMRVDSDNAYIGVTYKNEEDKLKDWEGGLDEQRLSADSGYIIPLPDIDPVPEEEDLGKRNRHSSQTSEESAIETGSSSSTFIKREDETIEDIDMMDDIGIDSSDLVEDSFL
# T1 sequence (P16234 with tags, fused parts or gaps): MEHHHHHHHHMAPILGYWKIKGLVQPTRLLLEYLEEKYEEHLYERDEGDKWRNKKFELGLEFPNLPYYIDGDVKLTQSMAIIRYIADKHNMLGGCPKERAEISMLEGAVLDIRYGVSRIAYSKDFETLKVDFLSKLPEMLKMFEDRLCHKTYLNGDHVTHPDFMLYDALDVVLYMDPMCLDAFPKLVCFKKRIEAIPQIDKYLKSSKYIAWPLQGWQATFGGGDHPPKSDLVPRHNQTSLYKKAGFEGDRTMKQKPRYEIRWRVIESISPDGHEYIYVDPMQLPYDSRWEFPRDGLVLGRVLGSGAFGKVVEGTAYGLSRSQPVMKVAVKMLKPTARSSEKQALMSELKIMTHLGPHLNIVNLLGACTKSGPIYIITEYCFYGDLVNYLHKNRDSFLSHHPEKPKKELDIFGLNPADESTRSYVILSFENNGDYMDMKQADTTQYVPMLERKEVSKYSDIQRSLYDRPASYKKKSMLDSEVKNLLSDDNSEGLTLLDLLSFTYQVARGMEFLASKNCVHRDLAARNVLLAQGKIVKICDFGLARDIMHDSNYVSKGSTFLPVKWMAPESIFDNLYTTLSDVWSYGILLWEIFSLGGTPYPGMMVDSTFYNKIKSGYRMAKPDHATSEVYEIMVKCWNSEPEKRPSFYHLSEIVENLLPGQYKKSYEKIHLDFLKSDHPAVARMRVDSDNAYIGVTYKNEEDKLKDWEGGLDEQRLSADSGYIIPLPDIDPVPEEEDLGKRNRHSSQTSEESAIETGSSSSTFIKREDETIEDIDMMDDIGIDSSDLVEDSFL
compound,measurement,setting,value
"CCn1c(=O)c(-c2cc(NC(=O)Nc3ccccc3)c(F)cc2Br)cc2cnc(NC)cc21 [Compound A, 1-[4-bromo-5-[1-ethyl-7-(methylamino)-2-oxo-1,2-dihydro-1,6-naphthyridin-3-yl]-2-fluorophenyl]-3-phenylurea]",Clinical outcome,"[1]; 30 mg BID oral, cycles of 28 days",progressed after 2 treatment cycles
same,Time on treatment with continued benefit,"[1]; 100 mg BID oral, Cycle 11",> 40 weeks
same,Tumor assessment according to RECIST 1.1,"[1]; 100 mg BID oral, most recent assessment",Stable Disease
same,Tumor reduction,[1]; 150 mg QD oral,some tumor reduction observed
same,Time on treatment,"[1]; 150 mg QD oral, Cycle 6",> 20 weeks
same,Tumor assessment per RECIST,"[1]; 150 mg QD oral, Cycle 6",stable disease
same,PDGFRα D842V mutation allele frequency in plasma cfDNA,"[2]; Cycle 3 Day 1 (8 weeks), not detected at baseline",0.59%
same,PDGFRα D842V mutation allele frequency in plasma cfDNA,[2]; Cycle 5 Day 1 (16 weeks) and Cycle 7 Day 1 (24 weeks),undetectable
same,Tumor response according to the RANO criteria,"[3]; PDGFRα 6× amplified, since assessment after Cycle 12 (48 weeks)",Partial Response
same,Time on study with continued benefit,"[3]; PDGFRα amplified, cycle 19",> 17 months
same,Frequency of double positive CTCs (PDGFRα+/GFAP+),[4]; cycle 7 (28 weeks),2.22 CTCs/mL
same,Frequency of double positive CTCs (PDGFRα+/GFAP+),[4]; cycle 13 (52 weeks),1.11 CTCs/mL
same,Frequency of double positive CTCs (PDGFRα+/GFAP+),[4]; cycle 17 (68 weeks),0.58 CTCs/mL
same,Cmax,[5]; oral Compound A 150 mg BID,1500 ng/mL
same,Cmax,[5]; oral Compound A 150 mg QD,861 ng/mL
same,Compound A AUC12h (mean),[5]; oral Compound A 150 mg QD,"8,070 ng*h/mL"
"CCn1c(=O)c(-c2cc(NC(=O)Nc3ccccc3)c(F)cc2Br)cc2cnc(N)cc21 [Compound B, 1-(5-(7-amino-1-ethyl-2-oxo-1,2-dihydro-1,6-naphthyridin-3-yl)-4-bromo-2-fluorophenyl)-3-phenylurea]",IC50,[6],6 nM
same,IC50,[7],20 nM
same,IC50,[8],5 nM
same,IC50,[9],42 nM
same,IC50,[10],26 nM
same,IC50,[11],0.018 nM
same,IC50,[12],< 0.1 nM
